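Grown in 96-well plates, cells were treated for 48 hours with each compound at five concentrations. Insufficient inhibition: endpoint recorded as highest concentration tested. Abbreviation: GI50, concentration required for 50% inhibition of growth. TGI: concentration producing complete growth inhibition.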
How the values were obtained:
Experiment in all cases: DTP human tumour cell line panel, 48 h
786-0 renal = system: 786-0 renal
A498 renal = system: A498 renal
A549 NSCLC = system: A549 NSCLC
ACHN renal = system: ACHN renal
BT-549 breast = system: BT-549 breast
CAKI-1 renal = system: CAKI-1 renal
CCRF-CEM leukemia = system: CCRF-CEM leukemia
COLO 205 colon = system: COLO 205 colon
DU-145 prostate = system: DU-145 prostate
EKVX NSCLC = system: EKVX NSCLC
HCC-2998 colon = system: HCC-2998 colon
HCT-15 colon = system: HCT-15 colon
HL-60(TB) leukemia = system: HL-60(TB) leukemia
HOP-62 NSCLC = system: HOP-62 NSCLC
HOP-92 NSCLC = system: HOP-92 NSCLC
HS 578T breast = system: HS 578T breast
HT29 colon = system: HT29 colon
IGROV1 ovarian = system: IGROV1 ovarian
K-562 leukemia = system: K-562 leukemia
KM12 colon = system: KM12 colon
LOX IMVI melanoma = system: LOX IMVI melanoma
M14 melanoma = system: M14 melanoma
MALME-3M melanoma = system: MALME-3M melanoma
MCF7 breast = system: MCF7 breast
MDA-MB-231 breast = system: MDA-MB-231 breast
MDA-MB-435 = system: MDA-MB-435
MOLT-4 leukemia = system: MOLT-4 leukemia
NCI-H226 lung = system: NCI-H226 lung
NCI-H460 lung = system: NCI-H460 lung
NCI-H522 lung = system: NCI-H522 lung
NCI/ADR-RES ovarian = system: NCI/ADR-RES ovarian
OVCAR-3 ovarian = system: OVCAR-3 ovarian
OVCAR-4 ovarian = system: OVCAR-4 ovarian
OVCAR-5 ovarian = system: OVCAR-5 ovarian
OVCAR-8 ovarian = system: OVCAR-8 ovarian
PC-3 prostate = system: PC-3 prostate
RPMI-8226 leukemia = system: RPMI-8226 leukemia
RXF 393 renal = system: RXF 393 renal
SF-268 CNS = system: SF-268 CNS
SF-295 CNS = system: SF-295 CNS
SF-539 CNS = system: SF-539 CNS
SK-MEL-2 melanoma = system: SK-MEL-2 melanoma
SK-MEL-28 melanoma = system: SK-MEL-28 melanoma
SK-MEL-5 melanoma = system: SK-MEL-5 melanoma
SK-OV-3 ovarian = system: SK-OV-3 ovarian
SN12C renal = system: SN12C renal
SNB-19 CNS = system: SNB-19 CNS
SNB-75 CNS = system: SNB-75 CNS
SR leukemia = system: SR leukemia
SW-620 colon = system: SW-620 colon
T-47D breast = system: T-47D breast
TK-10 renal = system: TK-10 renal
U251 CNS = system: U251 CNS
UACC-257 melanoma = system: UACC-257 melanoma
UACC-62 melanoma = system: UACC-62 melanoma
UO-31 renal = system: UO-31 renal

COC1CCN(Cc2ccc3c(NNC(=O)c4cnccn4)nc4cc(F)ccc4n23)C1 (stereo unspecified) gave a GI50 (786-0 renal) of 1930 nM, a TGI (786-0 renal) of 20.3 µM and a GI50 (A498 renal) of 89.2 µM. For the same compound, the TGI (A498 renal) was > 100 µM, the GI50 (A549 NSCLC) was 1240 nM and the TGI (A549 NSCLC) was 16 µM. It also gave a GI50 (ACHN renal) of 647 nM, a TGI (ACHN renal) of 31.8 µM and a GI50 (BT-549 breast) of 2320 nM. The TGI (BT-549 breast) was > 100 µM, the GI50 (CAKI-1 renal) was 933 nM and the TGI (CAKI-1 renal) was 19.7 µM. For the same compound, the GI50 (CCRF-CEM leukemia) was 468 nM, the TGI (CCRF-CEM leukemia) was > 100 µM and the GI50 (COLO 205 colon) was 949 nM. The TGI (COLO 205 colon) was 13.9 µM, the GI50 (DU-145 prostate) was 2680 nM and the TGI (DU-145 prostate) was > 100 µM. For the same compound, the GI50 (EKVX NSCLC) was 1080 nM, the TGI (EKVX NSCLC) was 23 µM and the GI50 (HCC-2998 colon) was 3.63 µM. For the same compound, the TGI (HCC-2998 colon) was 26.8 µM, the GI50 (HCT-15 colon) was 355 nM and the TGI (HCT-15 colon) was 16.3 µM. For the same compound, the GI50 (HL-60(TB) leukemia) was 1030 nM, the GI50 (HOP-62 NSCLC) was 747 nM and the TGI (HOP-62 NSCLC) was 14.4 µM. For the same compound, the GI50 (HOP-92 NSCLC) was 1770 nM, the TGI (HOP-92 NSCLC) was 30 µM and the GI50 (HS 578T breast) was 3.44 µM. The TGI (HS 578T breast) was > 100 µM, the GI50 (HT29 colon) was 552 nM and the TGI (HT29 colon) was 14.8 µM. The GI50 (IGROV1 ovarian) was 1130 nM, the TGI (IGROV1 ovarian) was 39.1 µM and the GI50 (K-562 leukemia) was 530 nM. The TGI (K-562 leukemia) was > 100 µM, the GI50 (KM12 colon) was 2140 nM and the TGI (KM12 colon) was > 100 µM. The GI50 (LOX IMVI melanoma) was 1130 nM, the TGI (LOX IMVI melanoma) was 2870 nM and the GI50 (M14 melanoma) was 1370 nM. For the same compound, the TGI (M14 melanoma) was 13.1 µM, the GI50 (MALME-3M melanoma) was 3.38 µM and the TGI (MALME-3M melanoma) was 18.9 µM. For the same compound, the GI50 (MCF7 breast) was 531 nM, the TGI (MCF7 breast) was 12.3 µM and the GI50 (MDA-MB-231 breast) was 1800 nM. For the same compound, the TGI (MDA-MB-231 breast) was 17.3 µM, the GI50 (MDA-MB-435) was 2090 nM and the TGI (MDA-MB-435) was 18.7 µM. It also gave a GI50 (MOLT-4 leukemia) of 699 nM, a TGI (MOLT-4 leukemia) of 41.5 µM and a GI50 (NCI-H226 lung) of 1700 nM. It also gave a TGI (NCI-H226 lung) of 18.2 µM, a GI50 (NCI-H460 lung) of 453 nM and a TGI (NCI-H460 lung) of 13.6 µM. It also gave a GI50 (NCI-H522 lung) of 1640 nM, a TGI (NCI-H522 lung) of 5.85 µM and a GI50 (NCI/ADR-RES ovarian) of 505 nM. For the same compound, the TGI (NCI/ADR-RES ovarian) was 16.6 µM, the GI50 (OVCAR-3 ovarian) was 2020 nM and the TGI (OVCAR-3 ovarian) was 49.8 µM. For the same compound, the GI50 (OVCAR-4 ovarian) was 667 nM, the TGI (OVCAR-4 ovarian) was 19.1 µM and the GI50 (OVCAR-5 ovarian) was 2710 nM. It also gave a TGI (OVCAR-5 ovarian) of 97.7 µM, a GI50 (OVCAR-8 ovarian) of 846 nM and a TGI (OVCAR-8 ovarian) of 15.1 µM. It also gave a GI50 (PC-3 prostate) of 1450 nM, a TGI (PC-3 prostate) of 30.2 µM and a GI50 (RPMI-8226 leukemia) of 1760 nM. The TGI (RPMI-8226 leukemia) was 15.6 µM, the GI50 (RXF 393 renal) was 1650 nM and the TGI (RXF 393 renal) was 5.19 µM. For the same compound, the GI50 (SF-268 CNS) was 1990 nM, the TGI (SF-268 CNS) was > 100 µM and the GI50 (SF-295 CNS) was 744 nM. The TGI (SF-295 CNS) was 14.6 µM, the GI50 (SF-539 CNS) was 1320 nM and the TGI (SF-539 CNS) was 12.1 µM. For the same compound, the GI50 (SK-MEL-2 melanoma) was 3.83 µM, the TGI (SK-MEL-2 melanoma) was 59.4 µM and the GI50 (SK-MEL-28 melanoma) was 3.37 µM. The TGI (SK-MEL-28 melanoma) was > 100 µM, the GI50 (SK-MEL-5 melanoma) was 2760 nM and the TGI (SK-MEL-5 melanoma) was 23.6 µM. The GI50 (SK-OV-3 ovarian) was 2350 nM, the TGI (SK-OV-3 ovarian) was 56 µM and the GI50 (SN12C renal) was 1820 nM. For the same compound, the TGI (SN12C renal) was 37 µM, the GI50 (SNB-19 CNS) was 2050 nM and the TGI (SNB-19 CNS) was 28.4 µM. For the same compound, the GI50 (SNB-75 CNS) was 538 nM, the TGI (SNB-75 CNS) was 13 µM and the GI50 (SR leukemia) was 722 nM. For the same compound, the TGI (SR leukemia) was 20.5 µM, the GI50 (SW-620 colon) was 821 nM and the TGI (SW-620 colon) was 20.3 µM. It also gave a GI50 (T-47D breast) of 1060 nM, a TGI (T-47D breast) of 64.5 µM and a GI50 (TK-10 renal) of 1480 nM. For the same compound, the TGI (TK-10 renal) was 58.4 µM, the GI50 (U251 CNS) was 601 nM and the TGI (U251 CNS) was 10.9 µM. It also gave a GI50 (UACC-257 melanoma) of 2230 nM, a TGI (UACC-257 melanoma) of 6.93 µM and a GI50 (UACC-62 melanoma) of 2300 nM. The TGI (UACC-62 melanoma) was 13.1 µM, the GI50 (UO-31 renal) was 260 nM and the TGI (UO-31 renal) was 14.6 µM.
With NC(N)=Nc1ccc(Oc2cccc(Nc3ccc(Br)c(C(F)(F)F)c3)c2)cn1 the GI50 (ACHN renal) was 1750 nM, the TGI (ACHN renal) was 3.2 µM and the GI50 (HL-60(TB) leukemia) was 1630 nM. The TGI (HL-60(TB) leukemia) was 4.12 µM, the GI50 (K-562 leukemia) was 2070 nM and the TGI (K-562 leukemia) was > 100 µM. It also gave a GI50 (NCI/ADR-RES ovarian) of 3930 nM, a TGI (NCI/ADR-RES ovarian) of 29.5 µM and a GI50 (SK-OV-3 ovarian) of 2040 nM. For the same compound, the TGI (SK-OV-3 ovarian) was 3.68 µM.

Source: PubChem BioAssay (NCI)
